Ends that are not written are not given here.

We go through 1 sequence from EP1847550A2, “Peptides effective in the treatment of tumors and other conditions requiring the removal or destruction of cells” (NYMOX CORPORATION, priority 2001, dated 2007).

One data set has as its system Rat prostate. Kind of data set: Intraprostatic infusion in rats, histology of the prostate gland after 72 hours. Type of data set: in vivo. To be noted: 300 µl of 1 mg/mL in PBS pH 7.4 (1.0 mg/kg), sacrificed after 72 hours, H & E histology. The protocol: Four rats were anesthetized with ether and given NTP peptide #7 by intraprostatic infusion. The injections consisted of 300 µl of NTP peptide #7 1 mg/mL in PBS pH 7.4. (1.0 mg/kg). Controls received injections of PBS alone or no injection. Rats were painlessly sacrificed after 72 hours. Prostate glands were dissected, fixed in 10% buffered formalin for 24 hours, embedded in paraffin, sectioned, and stained with H & E. For each animal the entire prostate gland was embedded and sectioned. All stained sections were examined histologically.
Normal rats were injected in the prostate as in the above Example 2, except they were injected with NTP peptide #17. Rats were painlessly sacrificed after 72 hours and their prostate glands were examined as in Example 2.

Data set [1] deals with muscle tissue, subcutaneous connective tissue, and dermis. The experiment in a line: Injection into skin, subcutaneous tissue and extremity skeletal muscle of normal rats, histopathology of injection foci at 24 hours. Type of data set: in vivo. The text has this:
The individual foci of infiltration were excised, fixed in 10% formalin, embedded in paraffin, and stained and examined by standard histopathological methods.
The controls received saline alone.
Tissues were excised, fixed in 10% formalin, embedded in paraffin, and stained and examined by standard histopathological methods.

Consider “LSLPSSWDYG [NTP peptide #7, AD7c-NTP p335-343]”, for which, in the data set with Rat prostate, the “effect on tissue at sites of injection (prostate)” value was “necrosis of tissue at the injection sites with loss of glandular epithelium, flattening and atrophy”. The “effect on tissue at sites of injection” value in data set [1] (injected in skin, subcutaneously and in extremity skeletal muscle, in saline, at 0.1-1 mg/mL, sacrificed at 24 hours) is “produced necrosis of tissue at the injection sites”. Besides, in data set [1] (skin, subcutaneous and skeletal muscle injection, 24 hours), the “spread of necrosis beyond the site of injection” value is listed as “did not appear to spread far beyond the site of injection”.
